Test results: US9765087B2, “Benzimidazole derivatives” (ENANTA PHARMACEUTICALS, INC., priority 2009, dated 2017)
Read-outs that look alike come from different tables or passages of the source.

Tested on: HCV 1a genotype replicon
Test: HCV replicon assay (qRT-PCR or luciferase), genotype 1a
Assay type: cell-based
Settings: Hepatitis C virus
Procedure: HCV replicon cell lines (kindly provided by R. Bartenschlager) isolated from colonies as described by Lohman et. al. (Lohman et al. (1999) Science 285: 110-113, expressly incorporated by reference in its entirety) and used for all experiments. The HCV replicon has the nucleic acid sequence set forth in EMBL Accession No.: AJ242651, the coding sequence of which is from nucleotides 1801 to 8406.
These cell lines were maintained at 37° C., 5% CO2, 100% relative humidity in DMEM (Cat#11965-084, Invitrogen), with 10% fetal calf serum (“FCS”, Invitrogen), 1% non-essential amino acids (Invitrogen), 1% of Glutamax (Invitrogen), 1% of 100× penicillin/streptomycin (Cat#15140-122, Invitrogen) and Geneticin (Cat#10131-027, Invitrogen) at 0.75 mg/ml or 0.5 mg/ml for 11-7 and Huh-luc/neo-ET cells, respectively.
EC50 values of single agent compounds and combinations were determined by HCV RNA detection using quantitative RT-PCR, according to the manufacturer's instructions, with a TAQMAN® One-Step RT-PCR Master Mix Reagents Kit (Cat#AB 4309169, Applied Biosystems) on an ABI Model 7500 thermocycler. The TaqMan primers used for detecting and quantifying HCV RNA were obtained from Integrated DNA Technologies. HCV RNA was normalized to GAPDH RNA levels in drug-treated cells, which is detected and quantified using the Human GAPDH Endogenous Control Mix (Applied Biosystems, AB 4310884E). Total cellular RNA is purified from 96-well plates using the RNAqueous 96 kit (Ambion, Cat# AM1812). Chemical agent cytotoxicity is evaluated using an MTS assay according to the manufacturer's directions (Promega).
Since clinical drug resistance often develops in viral infections following single agent therapies, there is a need to assess the additive, antagonistic, or synergistic properties of combination therapies. We used the HCV replicon system to assess the potential use of the compound of the present invention or in combination therapies with Interferon alpha, cyclosporine analogs and inhibitors targeting other HCV proteins. The acute effects of a single or combinations of drugs are studied in the “Huh-luc/neo-ET” replicon with each chemical agent titrated in an X or Y direction in a 6 point two-fold dilution curve centered around the EC50 of each drug. Briefly, replicon cells are seeded at 7,000 cells per well in 90 ul DMEM (without phenol red, Invitrogen Cat.#31053-036) per well with 10% FCS, 1% non-essential amino acids, 1% of Glutamax and 1% of 100× penicillin/streptomycin and incubated overnight at 37° C., 5% CO2, 100% relative humidity. 16-20 h after seeding cells, test compounds previously solubilized and titrated in dimethyl sulfoxide (“DMSO”) from each X plate and Y plate are diluted 1:100 in DMEM (without phenol red, Invitrogen Cat.#31053-036) with 10% FCS, 1% non-essential amino acids, 1% of Glutamax and 1% of 100× penicillin/streptomycin and added directly to the 96-well plate containing cells and growth medium at a 1:10 dilution for a final dilution of compound and DMSO of 1:1000 ([…] final concentration). Drug treated cells are incubated at 37° C., 5% CO2, 100% relative humidity for 72 hours before performing a luciferase assay using 100 ul per well BriteLite Plus (Perkin Elmer) according to the manufacturer's instructions. Data analysis utilizes the method published by Prichard and Shipman (Antiviral Research, 1990. 14:181-205). Using this method, the combination data are analyzed for antagonistic, additive, or synergistic combination effects across the entire combination surface created by the diluted compounds in combination.
The compounds of the present invention can be effective against the HCV 1b genotype. It should also be understood that the compounds of the present invention can inhibit multiple genotypes of HCV. In one embodiment compound of the present invention are active against the 1a, 1b, 2a, 2b, 3a, 4a, and 5a genotypes. […] EC50 ranges against HCV 1b and 1a are as follows: A>10 nM; B1-10 nM; C<1 nM.

[1] = Table 12, range class, read-out: 1a EC50 Range
[2] = Table 12, numeric values, read-out: 1a EC50

Row | Compound | EC50 [1] | EC50 [2]
1 | COC(=O)N[C@H](C(=O)N1CC2(CC2)C[C@H]1c1nc2ccc(C#Cc3ccc(-c4cnc([C@@H]5CCCN5C(=O)[C@@H](NC(=O)OC)[C@@H](C)c5ccccc5)[nH]4)cc3)cc2[nH]1)C(C)C (stereo in doubt) [Example 672] | < 1 nM | 
2 | COC(=O)N[C@H](C(=O)N1CC2(CC2)C[C@H]1c1nc2ccc(C#Cc3ccc(-c4cnc([C@@H]5CCCN5C(=O)[C@H](NC(=O)OC)c5cc(F)cc(F)c5)[nH]4)cc3)cc2[nH]1)C(C)C (stereo in doubt) [Example 678] | < 1 nM | 
3 | COC(=O)N[C@H](C(=O)N1CC2(CC2)C[C@H]1c1nc2ccc(C#Cc3ccc(-c4cnc([C@@H]5CCCN5C(=O)OC(C)(C)C)[nH]4)cc3)cc2[nH]1)C(C)C [Compound 666] | > 10 nM | 
4 | COC(=O)N[C@@H](CNC(N)=O)C(=O)N1CCC[C@H]1c1ncc(-c2ccc(C#Cc3ccc4nc([C@@H]5CC6(CC6)CN5C(=O)[C@@H](NC(=O)OC)C(C)C)[nH]c4c3)cc2)[nH]1 [Example 550] | 1 to 10 nM | 
5 | COC(=O)N[C@@H](CCNC(N)=O)C(=O)N1CCC[C@H]1c1nc(-c2ccc(C#Cc3ccc4[nH]c([C@@H]5CC6(CC6)CN5C(=O)[C@@H](NC(=O)OC)C(C)C)nc4c3)cc2)c[nH]1 [Example 553] | 1 to 10 nM | 
6 | COC(=O)N[C@H](C(=O)N1CC2(CC2)C[C@H]1c1ncc(-c2ccc(C#Cc3ccc4nc([C@@H]5CC6(CC6)CN5C(=O)[C@@H](N)C(C)C)[nH]c4c3)cc2)[nH]1)C(C)C [Example 556] | > 10 nM | 
7 | COC(=O)N[C@H](C(=O)N1CCC[C@H]1c1nc(-c2ccc(C#Cc3ccc4[nH]c([C@@H]5C[C@]6(CCCO6)CN5C(=O)[C@@H](NC(=O)OC)C(C)C)nc4c3)cc2)c[nH]1)C(C)C [Example 557] | 1 to 10 nM | 
8 | COC(=O)N[C@H](C(=O)N1C[C@@H](CF)C[C@H]1c1ncc(-c2ccc(C#Cc3ccc4nc([C@@H]5C[C@@]6(CCCO6)CN5C(=O)[C@@H](NC(=O)OC)C(C)C)[nH]c4c3)cc2)[nH]1)C(C)C [Example 566] | < 1 nM | 
9 | COC(=O)N[C@H](C(=O)N1CCC[C@H]1c1ncc(-c2ccc(C#Cc3ccc4nc([C@@H]5C[C@@H](C6CC6)CN5C(=O)[C@@H](NC(=O)OC)C(C)C)[nH]c4c3)cc2)[nH]1)C(C)C [Example 572] | < 1 nM | 
10 | CC(C)[C@H](NC(=O)OC1CCC1)C(=O)N1CC2(CC2)C[C@H]1c1ncc(-c2ccc(C#Cc3ccc4nc([C@@H]5CC6(CC6)CN5C(=O)[C@@H](NC(=O)OC5CCC5)C(C)C)[nH]c4c3)cc2)[nH]1 [Example 576] | > 10 nM | 
11 | COC(=O)N[C@H](C(=O)N1CC2(CC2)C[C@H]1c1ncc(-c2ccc(C#Cc3ccc4nc([C@@H]5CC6(CC6)CN5C(=O)[C@H](NC(=O)OC)c5ccsc5)[nH]c4c3)cc2)[nH]1)C(C)C [Example 581] | < 1 nM | 
12 | COC(=O)N[C@H](C(=O)N1CC2(CC2)C[C@H]1c1ncc(-c2ccc(C#Cc3ccc4nc([C@@H]5CC6(CC6)CN5C(=O)[C@H](NC(=O)OC)c5cccs5)[nH]c4c3)cc2)[nH]1)C(C)C [Example 582] | < 1 nM | 
13 | COC(=O)N[C@H](C(=O)N1CC2(CC2)C[C@H]1c1ncc(-c2ccc(C#Cc3ccc4nc([C@@H]5CC6(CC6)CN5C(=O)[C@H](NC(=O)OC)c5cccc(Cl)c5)[nH]c4c3)cc2)[nH]1)C(C)C [Example 584] | < 1 nM | 
14 | COC(=O)N[C@H](C(=O)N1CC2(CC2)C[C@H]1c1ncc(-c2ccc(C#Cc3ccc4nc([C@@H]5CC6(CC6)CN5C(=O)[C@H](NC(=O)OC)c5ccc(OC)cc5)[nH]c4c3)cc2)[nH]1)C(C)C [Example 585] | 1 to 10 nM | 
15 | COC(=O)N[C@H](C(=O)N1CC2(CC2)C[C@H]1c1ncc(-c2ccc(C#Cc3ccc4nc([C@@H]5C[C@H]6C[C@H]6N5C(=O)[C@H](NC(=O)OC)c5ccccc5)[nH]c4c3)cc2)[nH]1)C(C)C [Example 586] | < 1 nM | 
16 | CC[C@H](C)[C@H](NC(=O)OC)C(=O)N1CC2(CC2)C[C@H]1c1nc2ccc(C#Cc3ccc(-c4cnc([C@@H]5CC6(CC6)CN5C(=O)[C@@H](NC(=O)OC)C(C)C)[nH]4)cc3)cc2[nH]1 [Example 587] | < 1 nM | 
17 | COC(=O)N[C@H](C(=O)N1CC2(CC2)C[C@H]1c1nc(-c2ccc(C#Cc3ccc4[nH]c([C@@H]5CC6(CC6)CN5C(=O)[C@@H](NC(=O)OC)C(C)C)nc4c3)cc2)c(Cl)[nH]1)C(C)C [Example 588] | < 1 nM | 
18 | COC(=O)N[C@H](C(=O)N1CC2(CC2)C[C@H]1c1ncc(-c2ccc(C#Cc3ccc4nc([C@@H]5CC6(CC6)CN5C(=O)[C@@H](NC(=O)OC)[C@@H](C)OC)[nH]c4c3)cc2)[nH]1)C(C)C [Example 589] | < 1 nM | 
19 | COC(=O)N[C@H](C(=O)N1CC2(CC2)C[C@H]1c1ncc(-c2ccc(C#Cc3ccc4nc([C@@H]5CC6(CC6)CN5C(=O)[C@@H](NC(=O)OC)C5CCOCC5)[nH]c4c3)cc2)[nH]1)C(C)C [Example 590] |  | 0.017 nM
20 | COC(=O)N[C@H](C(=O)N1CC2(CC2)C[C@H]1c1nc(-c2ccc(C#Cc3ccc4[nH]c([C@@H]5CC6(CC6)CN5C(=O)[C@@H](NC(=O)OC)C(C)C)nc4c3)cc2)c(C2CC2)[nH]1)C(C)C [Example 591] | < 1 nM | 
21 | COC(=O)N[C@H](C(=O)N1CC2(CC2)C[C@H]1c1nc2ccc(C#Cc3ccc(-c4cnc([C@@H]5CC6(CC6)CN5C(=O)[C@@H](NC(=O)OC)C(C)C)[nH]4)cc3)cc2[nH]1)c1ccccc1 [Example 592] | < 1 nM | 
22 | COC(=O)N[C@H](C(=O)N1CC2(CC2)C[C@H]1c1nc(-c2ccc(C#Cc3ccc4[nH]c([C@@H]5CC6(CC6)CN5C(=O)[C@@H](NC(=O)OC)C(C)C)nc4c3)cc2)c(-c2ccncc2)[nH]1)C(C)C [Example 593] | < 1 nM | 
23 | COC(=O)N[C@H](C(=O)N1CC2(CC2)C[C@H]1c1nc2ccc(C#Cc3ccc(-c4cnc([C@@H]5CCCN5C(=O)[C@H](NC(=O)OC)c5ccccc5F)[nH]4)cc3)cc2[nH]1)C(C)C [Example 594] | < 1 nM | 
24 | COC(=O)N[C@H](C(=O)N1CCC[C@H]1c1ncc(-c2ccc(C#Cc3ccc4nc([C@@H]5CC6(CC6)CN5C(=O)[C@@H](NC(=O)OC)C(C)C)[nH]c4c3)cc2)[nH]1)c1ccccc1 [Example 595] | < 1 nM | 
25 | COC(=O)N[C@H](C(=O)N1CC2(CC2)C[C@H]1c1nc2ccc(C#Cc3ccc(-c4cnc([C@@H]5CCCN5C(=O)[C@H](NC(=O)OC)c5ccsc5)[nH]4)cc3)cc2[nH]1)C(C)C [Example 596] | < 1 nM | 
26 | COC(=O)N[C@H](C(=O)N1CC2(CC2)C[C@H]1c1nc2ccc(C#Cc3ccc(-c4cnc([C@@H]5CCCN5C(=O)[C@H](NC(=O)OC)c5cccc(OC)c5)[nH]4)cc3)cc2[nH]1)C(C)C [Example 597] |  | 0.227 nM
27 | COC(=O)N[C@H](C(=O)N1CC2(CC2)C[C@H]1c1nc2ccc(C#Cc3ccc(-c4cnc([C@@H]5CCCN5C(=O)[C@@H](NC(=O)OC)[C@@H](C)OC)[nH]4)cc3)cc2[nH]1)C(C)C [Example 598] | < 1 nM | 
28 | COC(=O)N[C@H](C(=O)N1CC2(CC2)C[C@H]1c1ncc(-c2ccc(C#Cc3ccc4nc([C@@H]5CC6(CC6)CN5C(=O)[C@H](NC(=O)OC)C5CCCC5)[nH]c4c3)cc2)[nH]1)C(C)C [Example 599] | 1 to 10 nM | 
29 | COC(=O)N[C@H](C(=O)N1CC2(CC2)C[C@H]1c1nc2ccc(C#Cc3ccc(-c4cnc([C@@H]5CCCN5C(=O)[C@H](NC(=O)OC)c5cccc(F)c5)[nH]4)cc3)cc2[nH]1)C(C)C [Example 600] | < 1 nM | 
30 | COC(=O)N[C@H](C(=O)N1CC2(CC2)C[C@H]1c1ncc(-c2ccc(C#Cc3ccc4nc([C@@H]5CC6(CC6)CN5C(=O)[C@H](NC(=O)OC)[C@H](C)c5ccccc5)[nH]c4c3)cc2)[nH]1)C(C)C [Example 601] | > 10 nM | 
